Source: patent publication US6498254B1, “Antiretroviral compounds and compositions” (Uniroyal Chemical Company, Inc., priority 2001, dated 2002)
≈ marks a conversion by molar mass, not a printed value. Where two headings read alike, the source gives them in different places.

Assays:
[1] = test system: HIV-2 (ROD); test: Inhibition of HIV-2 syncytium formation in CEM cells; format: cell-based; conditions: for EC50: Human immunodeficiency virus 2, CCRF-CEM, read-out: EC50 (μg/ml) HIV-2; for HIV-2 % Protection: protection of CEM cells against virus-induced cytopathicity at the compound concentration in the previous column
Description: (§1) The cell type used to determine activity of the compounds of the invention herein, i.e., the test compounds, against HIV was human T-lymphoblast (CEM) cells obtained from the American Tissue Cell Culture Collection (Rockville, Md.). HIV-1 (IIIB) was originally obtained from the culture of persistently HIV-1 infected H9 cells and was provided by R. C. Gallo and M. Popovic (National Cancer Institute, National Institutes of Health, Bethesda, Md.). HIV-2 (ROD) was originally obtained from L. M. Montagnier (Pasteur Institute, Paris, France).
(§2) To determine the antiviral activity of the test compounds, CEM cells were suspended at a cell density of approximately 300,000 cells per ml of culture medium and infected with approximately 100 CClD50 (100 CClD50 being the 50% cell culture infective dose) of HIV-1 (IIIB) or HIV-2 (ROD)). Then 100 μl of the infected cell suspensions was added to 200 μl micro titer plate wells containing 100 μl of appropriate serial (5-fold) dilutions of the test compounds. The inhibitory effect of the test compounds on HIV-1 or HIV-2 syncytium formation in CEM cells was examined microscopically on day four post infection. The 50% effective concentration (EC50) was defined as the test compound concentration that inhibits syncytium formation in the HIV-1 or HIV-2 infected cell cultures by 50%.
(§3) In some cases, the compounds had considerable cytotoxicity to CEM cells which made determination of the EC50 difficult. In these cases, the percent protection of the cells against virus-induced cytopathicity by the test compounds at the indicated compound concentration in the previous column is given.

[2] = test system: HIV-1 (IIIB); test: Inhibition of HIV-1 syncytium formation in CEM cells; format: cell-based; conditions: for EC50: read-out: EC50 (μg/ml) HIV-1; for HIV-1 % Protection: protection of CEM cells against virus-induced cytopathicity at the compound concentration in the previous column
Description: as §1, §2, §3

[3] = test system: CMV Davis strain; test: Activity against HCMV: virus-induced cytopathicity in HEL cells; format: cell-based, human cytomegalovirus (HCMV); conditions: for IC50: read-out: Antiviral IC50 (μg/ml) Davis strain; for Antiviral % Inhibition Davis strain: estimate of percent protection of HEL cells at the compound concentration
Procedure: Confluent HEL cells grown in […] microtiter plates were inoculated with CMV at an input of 100 PFU (plaque forming units) per well. After a one to two hour incubation period, residual virus was removed and the infected cells were further incubated with MEM (Minimal Essential Medium) (supplemented with 2% inactivated Fetal Calf Serum (FCS), […], and 0.3% sodium bicarbonate) containing varying concentrations of the test compounds. Antiviral activity was expressed as EC50 (50% effective concentration), or test compound concentration required to reduce virus-induced cytopathicity after seven days by 50% compared to the untreated control.
In some cases, the compounds had considerable cytotoxicity against HEL cells, which made determination of the EC50's difficult. In these cases, an estimate of the percent protection at the compound concentration indicated in the previous columns is given.

[4] = HIV-2 (ROD) infected CEM cells, syncytium formation, day four post infection
[5] = Human immunodeficiency virus 1, CCRF-CEM, HIV-1 (IIIB) infected CEM cells, syncytium formation, day four post infection
[6] = Human betaherpesvirus 5, 168 h, CMV-infected HEL cells, virus-induced cytopathicity after seven days
[7] = Human immunodeficiency virus 1, IIIB, CCRF-CEM
[8] = Human betaherpesvirus 5, HEL, 168 h
[9] = CMV-infected HEL cells, virus-induced cytopathicity after seven days
[10] = HIV-1 (IIIB) infected CEM cells, syncytium formation, day four post infection

| Compound | EC50 [1, 4] | HIV-2 % Protection [1] | EC50 [2, 5] | HIV-1 % Protection [2] | IC50 [3, 6] | Antiviral % Inhibition Davis strain [3] | EC50 [1] | EC50 [2, 7] | IC50 [3, 8] | Antiviral IC50 (μg/ml) Davis strain [3, 9] | EC50 (μg/ml) HIV-2 [1, 4] | EC50 (μg/ml) HIV-1 [2, 10] |
| --- | --- | --- | --- | --- | --- | --- | --- | --- | --- | --- | --- | --- |
| Cc1ccc[n+]([O-])c1S(=O)(=O)Cc1c(Cl)cccc1Cl [Compound 139, 2-[[(2,6-dichlorophenyl)methyl]sulfonyl]-3-methyl-pyridine-N-oxide] | > 20 µg/mL | 0.0% | > 20 µg/mL | 0.0% | 43 µg/mL (≈ 129 µM) |  |  |  |  |  |  |  |
| O=[N+]([O-])c1ccc(CS(=O)(=O)c2cccc[n+]2[O-])c(Cl)c1 [Compound 69, 2-[[(2-chloro-4-nitrophenyl)methyl]sulfonyl]pyridine-N-oxide] | 2.9 µg/mL (≈ 8.82 µM) |  | 2.9 µg/mL (≈ 8.82 µM) |  | > 5 µg/mL | 20.0% |  |  |  |  |  |  |
| COc1ccc(CSc2cc(C(C)(C)C)cc[n+]2[O-])cc1 [Compound 134, 4-(1,1-dimethylethyl)-2-[(4-methoxyphenyl)methylthio]pyridine-N-oxide] | > 100 µg/mL | 0.0% | > 20 µg/mL | 0.0% | > 50 µg/mL |  |  |  |  |  |  |  |
| Cc1ccc(C)c(CS(=O)(=O)c2ccccn2)c1 [Compound 150, 2-(2,5-dimethylbenzylsulfonyl)pyridine] | 20 µg/mL (≈ 76.5 µM) |  | 3.25 µg/mL (≈ 12.4 µM) |  | > 50 µg/mL | 20.0% |  |  |  |  |  |  |
| [O-][n+]1cc(Cl)ccc1SCc1ccccc1 [Compound 151, 5-chloro-2(benzylthio)pyridine-N-oxide] |  | 0.0% |  | 0.0% |  | 20.0% | > 20 µg/mL | > 20 µg/mL | > 20 µg/mL |  |  |  |
| CCc1cccc2c(C)cc(S(=O)(=O)C(C)c3ccccc3)nc12 (centres unmarked) [Compound 107, 8-ethyl-4-methyl-2-[(1-phenylethyl)sulfonyl]quinoline] | > 100 µg/mL |  | 0.65 µg/mL (≈ 1.91 µM) |  | > 20 µg/mL | 0.0% |  |  |  |  |  |  |
| O=[N+]([O-])c1cc(CS(=O)(=O)c2cccc[n+]2[O-])cc([N+](=O)[O-])c1 [Compound 65, 2-[[(3,5-dinitrophenyl)methyl]sulfonyl]pyridine-N-oxide] | 3.5 µg/mL (≈ 10.3 µM) |  | 2.8 µg/mL (≈ 8.25 µM) |  | 5 µg/mL (≈ 14.7 µM) |  |  |  |  |  |  |  |
| Cc1ccc(N)cc1C(C)S(=O)(=O)c1cccc[n+]1[O-] (centres unmarked) [Compound 1, 2-[[1-(5-amino-2-methylphenyl)ethyl]sulfonyl]pyridine-N-oxide] | 41 µg/mL (≈ 140 µM) |  | 20 µg/mL (≈ 68.4 µM) |  | > 50 µg/mL | 0.0% |  |  |  |  |  |  |
| [O-][n+]1cccc(Cl)c1SCc1ccccc1 [Compound 132, 3-chloro-2-[(phenylmethyl)thio]pyridine-N-oxide] |  | 0.0% |  |  |  | 0.0% | > 20 µg/mL | 2.4 µg/mL (≈ 9.53 µM) | > 50 µg/mL |  |  |  |
| O=[N+]([O-])c1cccnc1SCc1ccccc1 [Compound 146, 2-benzylthio-3-nitropyridine] |  | 37.5% |  |  |  |  | ≥ 20 µg/mL | 2.3 µg/mL (≈ 9.34 µM) | 40 µg/mL (≈ 162 µM) |  |  |  |
| 1,4-xylyl-bis-2-sulfonyl pyridine-N-oxide [Compound 23] |  | 37.5% |  | 37.5% |  | 20.0% |  |  |  | >20 µg/mL |  |  |
| ethyl-N-[4-(pyridyl-N-oxide-2-sulfonylmethyl)phenylcarbonyl]carbamate [Compound 60] |  |  |  |  |  | 0.0% |  |  |  | >50 µg/mL | 17.0 µg/mL | 40.00 µg/mL |
| COc1ccc(C=C(C#N)Sc2cccc[n+]2[O-])cc1 [Compound 159, 2-[1-cyano-2-(p-methoxyphenyl)ethenethio]pyridine-N-oxide] |  | 25.0% |  | 0.0% |  |  | > 20 µg/mL | > 20 µg/mL | 10 µg/mL (≈ 35.2 µM) |  |  |  |
| Cc1ccc(C)c(CS(=O)(=O)c2cccc(Cl)[n+]2[O-])c1 [Compound 77, 2-(2,5-dimethylphenylmethylsulfonyl)-6-chloropyridine-N-oxide] | > 0.8 µg/mL | 0.0% | 0.7 µg/mL (≈ 2.25 µM) |  | 11 µg/mL (≈ 35.3 µM) |  |  |  |  |  |  |  |
| Cc1ccc(CS(=O)(=O)c2cccc[n+]2[O-])cc1[N+](=O)[O-] [Compound 67, 2-[[(3-nitro-4-methylphenyl)methyl]sulfonyl]pyridine-N-oxide] | 2.4 µg/mL (≈ 7.78 µM) |  | 2.3 µg/mL (≈ 7.46 µM) |  | > 50 µg/mL | 20.0% |  |  |  |  |  |  |
| CN1CCCC(CSc2cccc[n+]2[O-])C1 (centres unmarked) [Compound 156, 2-(N-methyl-3-piperidylmethylthio)pyridine-N-oxide] |  | 0.0% |  |  |  | 0.0% | > 100 µg/mL | 16 µg/mL (≈ 67.1 µM) | > 50 µg/mL |  |  |  |
| Cc1ccc[n+]([O-])c1SCc1c(Cl)cccc1Cl [Compound 137, 2-[[(2,6-dichlorophenyl)methyl]thio]-3-methyl-pyridine-N-oxide] |  | 0.0% |  | 0.0% |  |  | > 20 µg/mL | > 20 µg/mL | 28 µg/mL (≈ 93.3 µM) |  |  |  |
| Cc1ccc([N+](=O)[O-])c(CS(=O)(=O)c2cccc[n+]2[O-])c1 [Compound 62, 2-[[(2-nitro-5-methylphenyl)methyl]sulfonyl]pyridine-N-oxide] | 5 µg/mL (≈ 16.2 µM) |  | 1.9 µg/mL (≈ 6.16 µM) |  | > 5 µg/mL | 20.0% |  |  |  |  |  |  |
| Cc1ccc(C)c(CSc2cccc[n+]2C)c1 [Compound 142, 2[[(2,5-dimethylphenyl)methyl]thio]-1-methylpyridinium chloride] |  | 0.0% |  | 0.0% |  |  | > 4 µg/mL | > 4 µg/mL | 3.4 µg/mL |  |  |  |
| Cc1ccc(C)c(C(Cl)S(=O)(=O)c2c(Cl)ccc[n+]2[O-])c1 (centres unmarked) [Compound 125, 3-chloro-2-[[chloro-(2,5-dimethylphenyl)methyl]sulfonyl]pyridine-N-oxide] | > 4 µg/mL | 0.0% | > 4 µg/mL | 0.0% | 31.5 µg/mL (≈ 91 µM) |  |  |  |  |  |  |  |
| 2-(2,5-dimethylphenyl)methylsulfinyl)pyridine [Compound 163] |  | 0.0% |  |  |  | 0.0% |  |  |  | >50 µg/mL | >100 µg/mL | 3.25 µg/mL |
| Cc1ccc(C)c(C(Cl)S(=O)(=O)c2cccc(C)[n+]2[O-])c1 (centres unmarked) [Compound 73, 2-[(2,5-dimethylphenyl)chloromethylsulfonyl]-6-methylpyridine-N-oxide] | > 100 µg/mL | 0.0% | 2.8 µg/mL (≈ 8.59 µM) |  | > 20 µg/mL | 40.0% |  |  |  |  |  |  |
| CCC(C)(C)c1ccc(CS(=O)(=O)c2cccc[n+]2[O-])cc1 [Compound 40, 2-(4′-tert-pentylphenylmethylsulfonyl)pyridine-N-oxide] | 3.4 µg/mL (≈ 10.6 µM) |  | 3.1 µg/mL (≈ 9.7 µM) |  | 1.5 µg/mL (≈ 4.7 µM) |  |  |  |  |  |  |  |
| COCC(c1cc(C)ccc1C)S(=O)(=O)c1ccccn1 (centres unmarked) [Compound 123, 2-[[1-(2,5-dimethylphenyl)-2-methoxyethyl]sulfonyl]pyridine] | > 100 µg/mL | 0.0% | 60 µg/mL (≈ 196 µM) |  | > 50 µg/mL | 40.0% |  |  |  |  |  |  |
| N#CC(=Cc1ccccc1)Sc1cccc[n+]1[O-] [Compound 158, 2-(1-cyano-2-phenylethenethio) pyridine-N-oxide] |  | 0.0% |  | 0.0% |  |  |  |  |  | 3.6 µg/mL | >4 µg/mL | >4 µg/mL |
| Cc1ccc(C)c(C(C)S(=O)(=O)c2ccccn2)c1 (centres unmarked) [Compound 161, 2-[1-(2,5-dimethylphenyl)ethylsulfonyl]pyridine] | > 100 µg/mL | 0.0% | 9.5 µg/mL (≈ 34.5 µM) |  | 38 µg/mL (≈ 138 µM) |  |  |  |  |  |  |  |
